Assay results from PMC7305224, “Mutually stabilizing interactions between proto-peptides and RNA” (Nature Communications, 2020).
Non-standard residues stand in square brackets, D forms with d. Residues, ends and D or L forms follow the SMILES beside them. *: point of attachment. 5FAM = O=C1OC2(c3ccc(O)cc3Oc3cc(O)ccc32)c2ccc(C(=O)*)cc21; Dab = NCC[C@H](N)C(=O)O; Lac = C[C@H](O)C(=O)O

Assays:
5′-Cy5-U20 RNA = assay: Gel mobility (band) shift assay; format: binding; conditions: 66.6–530 µM FAM-labeled sequence, 5′-Cy5-U20 RNA 26.6 µM, MES-TEA buffer pH 6, 12% native polyacrylamide gel
Method: The gel was cropped at the edges for clarity. […] Spectra were recorded in 100 mM MES-TEA buffer (pH 6). d Plot of the change in CD signal at 266 nm as a function of increasing concentrations of depsipeptide 14. Red and blue colors of the filled circles correspond to curves of the same color in panel (c). […] […] An addition of 1.25 µL of glycerol brought the sample volume to a total of 3.75 µL. Samples were loaded onto a 12% native polyacrylamide gel, run at 100 V for 90 min, and imaged using Azure Biosystems c430.

[1] = system: RNA duplex 1 (5′-rCrGrCrUrArArArUrCrG-3′ & 5′-rCrGrArUrUrUrArGrCrG-3′); assay: RNA thermal denaturation (Tm) by UV hyperchromicity at 260 nm with synthetic peptides/depsipeptides, RNA duplex 1; format: binding; conditions: for RNA duplex 1 Tm: observed Tm, peptide/depsipeptide 80 mM (so in the source), pH 7.0, mean ± SD; for RNA duplex 1 ΔTm: peptide/depsipeptide 80 μM, pH 7.0, 10 mM phosphate, 100 mM NaCl

Structure (SMILES) | band shift of RNA in gel mobility shift assay (5′-Cy5-U20 RNA) | RNA duplex 1 Tm [1] [°C] | RNA duplex 1 ΔTm [1] [°C]
C[C@H](NC(=O)CNC(=O)c1ccc2c(c1)C(=O)OC21c2ccc(O)cc2Oc2cc(O)ccc21)C(=O)N[C@@H](CCN)C(=O)N[C@@H](CCCCN)C(=O)N[C@@H](C)C(=O)N[C@@H](CCN)C(=O)N[C@@H](CCCCN)C(=O)N[C@@H](C)C(=O)N[C@@H](CCN)C(=O)N[C@@H](CCCCN)C(=O)N[C@@H](C)C(=O)N[C@@H](CCN)C(=O)N[C@@H](CCCCN)C(=O)N[C@@H](C)C(=O)N[C@@H](CCN)C(=O)N[C@@H](CCCCN)C(N)=O [compound 12, 5-FAM-Gly-Ala-Dab-Lys-Ala-Dab-Lys-Ala-Dab-Lys-Ala-Dab-Lys-Ala-Dab-Lys NH2] (5FAM-GA[Dab]KA[Dab]KA[Dab]KA[Dab]KA[Dab]K-NH2) | concentration-dependent band shift | 54.4 ± 0.6 | 10.6
C[C@H](NC(=O)CNC(=O)c1ccc2c(c1)C(=O)OC21c2ccc(O)cc2Oc2cc(O)ccc21)C(=O)N[C@@H](CCN)C(=O)N[C@@H](CCCCN)C(=O)N[C@@H](C)C(=O)N[C@@H](CCN)C(=O)N[C@@H](CCCCN)C(=O)N[C@@H](C)C(=O)N[C@@H](CCN)C(=O)N[C@@H](CCCCN)C(=O)O[C@@H](C)C(=O)N[C@@H](CCN)C(=O)N[C@@H](CCCCN)C(=O)N[C@@H](C)C(=O)N[C@@H](CCN)C(=O)N[C@@H](CCCCN)C(N)=O [compound 13, 5-FAM-Gly-Ala-Dab-Lys-Ala-Dab-Lys-Ala-Dab-Lys-lac-Dab-Lys-Ala-Dab-Lys NH2] (5FAM-GA[Dab]KA[Dab]KA[Dab]K[Lac][Dab]KA[Dab]K-NH2) | concentration-dependent band shift | 56.0 ± 0.8 | 12.2
